Experimental data from patent US10683294B2, “5-5 fused rings as C5a inhibitors” (CHEMOCENTRYX, INC., priority 2017, dated 2020).

Biological target: C5aR (Homo sapiens (Human), UniProt P21730)
Test: Chemotaxis assay (inhibition of C5aR mediated migration towards C5a)
Assay type: cell-based
Conditions: inhibition in the chemotaxis assay (Example 14 B.3); U937 or neutrophil cells, 0.03 nM C5a
Protocol: U937 cells are a monocytic cell line which express C5aR, and are available from ATCC (VA). These cells were cultured as a suspension in RPMI-1640 medium supplemented with 2 mM L-glutamine, 1.5 g/L sodium bicarbonate, 4.5 g/L glucose, 10 mM HEPES, 1 mM sodium pyruvate, and 10% FBS. Cells were grown under 5% CO2/95% air, 100% humidity at 37° C. and subcultured twice weekly at 1:6 (cells were cultured at a density range of 1×10^5 to 2×10^6 cells/mL) and harvested at 1×10^6 cells/mL. Prior to assay, cells are treated overnight with 0.5 mM of cyclic AMP (Sigma, Ohio) and washed once prior to use. cAMP treated U937 cells can be used in C5aR ligand binding and functional assays.
Optionally, human or murine neutrophils can be used to assay for compound activity. Neutrophils may be isolated from fresh human blood using density separation and centrifigation. Briefly, whole blood is incubated with equal parts 3% dextran and allowed to separate for 45 minutes. After separation, the top layer is layered on top of 15 mls of Ficoll (15 mls of Ficoll for every 30 mls of blood suspension) and centrifuged for 30 minutes at 400×g with no brake. The pellet at the bottom of the tube is then isolated and resuspended into PharmLyse RBC Lysis Buffer (BD Biosciences, San Jose, Calif.) after which the sample is again centrifuged for 10 minutes at 400×g with brake. The remaining cell pellet is resuspended as appropriate and consists of isolated neutrophils.
Optionally, compounds may be further assayed for their ability to inhibit chemotaxis in cells. Chemotaxis assays are performed using 5 μm pore polycarbonate, polyvinylpyrrolidone-coated filters in 96-well chemotaxis chambers (Neuroprobe; Gaithersburg, Md.) using chemotaxis buffer (Hank's balanced salt solution (HBSS) and 1% FBS). C5aR ligands (i.e., C5a, R&D Systems; Minneapolis, Minn.) are use to evaluate compound mediated inhibition of C5aR mediated migration. Other chemokines (i.e., SDF-1α; R&D Systems; Minneapolis, Minn.) are used as specificity controls. The lower chamber is loaded with 29 μl of chemokine (i.e., 0.03 nM C5a) and varying amounts of compound; the top chamber contains 100,000 U937 or neutrophil cells in 20 μl. The chambers are incubated 1.5 hours at 37° C., and the number of cells in the lower chamber quantified either by direct cell counts in five high powered fields per well or by the CyQuant assay (Molecular Probes), a fluorescent dye method that measures nucleic acid content and microscopic observation.

C5aR, sequence (P21730 whole entry): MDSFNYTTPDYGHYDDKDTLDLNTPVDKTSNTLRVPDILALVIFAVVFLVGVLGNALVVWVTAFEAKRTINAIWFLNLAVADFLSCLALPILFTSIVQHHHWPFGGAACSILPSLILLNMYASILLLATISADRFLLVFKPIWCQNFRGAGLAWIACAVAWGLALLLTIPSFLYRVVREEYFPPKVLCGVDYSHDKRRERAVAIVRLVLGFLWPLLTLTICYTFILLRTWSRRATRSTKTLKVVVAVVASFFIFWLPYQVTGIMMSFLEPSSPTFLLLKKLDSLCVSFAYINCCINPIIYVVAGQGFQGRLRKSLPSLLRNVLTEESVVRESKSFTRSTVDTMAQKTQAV

Compound	IC50
CCc1cccc(CC)c1-n1nc2c(c1-c1ccc(F)c3[nH]ccc13)CN(Cc1cc(C(F)(F)F)cc(C(F)(F)F)c1)C2(C)C [Compound 1.001]	5 to 50 nM
CCc1cccc(CC)c1-n1nc2c(c1-c1cc(F)c(OC)c3[nH]ccc13)CN(Cc1ccc(C(F)(F)F)cc1C(F)(F)F)C2(C)C [Compound 1.002]	< 5 nM
CCc1cccc(CC)c1-n1nc2c(c1-c1ccc(F)c3[nH]ccc13)CN(C(=O)NC(C)C)C2(C)C [Compound 1.003]	≥ 500 nM
CCc1cccc(CC)c1-n1nc2c(c1-c1ccc(CO)c3[nH]ccc13)CN(Cc1ccc(C(F)(F)F)cc1C(F)(F)F)C2(C)C [Compound 1.004]	< 5 nM
CCc1cccc(CC)c1-n1nc2c(c1-c1ccc(C(=O)O)c3[nH]ccc13)CN(Cc1ccc(C(F)(F)F)cc1C(F)(F)F)C2(C)C [Compound 1.005]	≥ 500 nM
CCc1cccc(CC)c1-n1nc2c(c1-c1ccc(F)c3[nH]ccc13)CN(C(=O)CN)C2(C)C [Compound 1.006]	≥ 500 nM
CCc1cccc(CC)c1-n1nc2c(c1-c1ccc(F)c3[nH]ccc13)CN(C(=O)CNC(=O)OC(C)(C)C)C2(C)C [Compound 1.007]	50 to 500 nM
CCc1cccc(CC)c1-n1nc2c(c1-c1ccc(F)c3[nH]ccc13)CN(Cc1ncco1)C2(C)C [Compound 1.008]	50 to 500 nM
CCc1cccc(CC)c1-n1nc2c(c1-c1ccc(F)c3[nH]ccc13)CN(CC(C)(C)O)C2(C)C [Compound 1.009]	50 to 500 nM
CCc1cccc(CC)c1-n1nc2c(c1-c1cccc3[nH]cc(F)c13)CN(Cc1ccc(C(F)(F)F)cc1C(F)(F)F)C2(C)C [Compound 1.010]	5 to 50 nM
CCc1cccc(CC)c1-n1nc2c(c1-c1ccc(F)c3[nH]cc(Cl)c13)CN(Cc1ccc(C(F)(F)F)cc1C(F)(F)F)C2(C)C [Compound 1.011]	5 to 50 nM
CCc1cccc(CC)c1-n1nc2c(c1-c1ccc(F)c3[nH]ccc13)CN(Cc1ccc(F)cc1Cl)C2(C)C [Compound 1.012]	5 to 50 nM
CCc1cccc(CC)c1-n1nc2c(c1-c1ccc(F)c3[nH]ccc13)CN(Cc1ccc(F)cc1F)C2(C)C [Compound 1.013]	5 to 50 nM
CCc1cccc(CC)c1-n1nc2c(c1-c1ccc(F)c3[nH]ccc13)CN(Cc1ccncc1)C2(C)C [Compound 1.014]	50 to 500 nM
CCc1cccc(CC)c1-n1nc2c(c1-c1ccc(F)c3[nH]cc(Cl)c13)CN(Cc1ccc(Cl)cc1F)C2(C)C [Compound 1.015]	5 to 50 nM
CCc1cccc(CC)c1-n1nc2c(c1-c1ccc(F)c3[nH]ccc13)CN(Cc1cccnc1)C2(C)C [Compound 1.016]	50 to 500 nM
CCc1cccc(CC)c1-n1nc2c(c1-c1ccc(F)c3[nH]cc(Cl)c13)CN(Cc1ccc(F)cc1F)C2(C)C [Compound 1.017]	< 5 nM
CCc1cccc(CC)c1-n1nc2c(c1-c1ccc(F)c3[nH]ccc13)CN(Cc1cccc(F)c1)C2(C)C [Compound 1.018]	5 to 50 nM
CCc1cccc(CC)c1-n1nc2c(c1-c1ccc(F)c3[nH]ccc13)CN(Cc1ccccn1)C2(C)C [Compound 1.019]	5 to 50 nM
CCc1cccc(CC)c1-n1nc2c(c1-c1ccc(F)c3[nH]ccc13)CN(Cc1ccc(Cl)cc1Cl)C2(C)C [Compound 1.020]	5 to 50 nM
CCc1cccc(CC)c1-n1nc2c(c1-c1ccc(F)c3[nH]ccc13)CN(Cc1ccccc1)C2(C)C [Compound 1.021]	< 5 nM
CCc1cccc(CC)c1-n1nc2c(c1-c1ccc(F)c3[nH]ccc13)CN(Cc1ccccc1F)C2(C)C [Compound 1.022]	5 to 50 nM
CCc1cccc(CC)c1-n1nc2c(c1-c1ccc(F)c3[nH]ccc13)CN(Cc1ccc(F)cc1)C2(C)C [Compound 1.023]	< 5 nM

Compound	IC50
CCc1cccc(CC)c1-n1nc2c(c1-c1ccc(Cl)c3[nH]ccc13)CN(Cc1ccc(C(F)(F)F)cc1C(F)(F)F)C2(C)C [Compound 1.024]	< 5 nM
CCc1cccc(CC)c1-n1nc2c(c1-c1ccc(C)c3[nH]ccc13)CN(Cc1ccc(C(F)(F)F)cc1C(F)(F)F)C2(C)C [Compound 1.025]	< 5 nM
CCc1cccc(CC)c1-n1nc2c(c1-c1ccc(F)c3[nH]cc(Cl)c13)CN(Cc1ccccc1C(F)(F)F)C2(C)C [Compound 1.026]	< 5 nM
CCc1cccc(CC)c1-n1nc2c(c1-c1cc(F)c3[nH]ccc3c1)CN(Cc1ccc(C(F)(F)F)cc1C(F)(F)F)C2(C)C [Compound 1.027]	5 to 50 nM
CCc1cccc(CC)c1-n1nc2c(c1-c1ccc(F)c3[nH]ccc13)CN(C(=O)c1ccccn1)C2(C)C [Compound 1.028]	50 to 500 nM
CCc1cccc(CC)c1-n1nc2c(c1-c1ccc(F)c3[nH]ccc13)CN(Cc1ccccc1C(F)(F)F)C2(C)C [Compound 1.029]	5 to 50 nM
CCc1cccc(CC)c1-n1nc2c(c1-c1ccc(F)c3[nH]ccc13)CN(C(=O)CC(C)C)C2(C)C [Compound 1.030]	5 to 50 nM
CCc1cccc(CC)c1-n1nc2c(c1-c1cc(F)cc3[nH]ccc13)CN(Cc1ccc(C(F)(F)F)cc1C(F)(F)F)C2(C)C [Compound 1.031]	5 to 50 nM
CCc1cccc(CC)c1-n1nc2c(c1-c1ccc(F)c3[nH]ccc13)CN(CC(C)(C)C)C2(C)C [Compound 1.032]	< 5 nM
CCc1cccc(CC)c1-n1nc2c(c1-c1ccc(F)c3[nH]ccc13)CN(C(=O)C(C)(C)C)C2(C)C [Compound 1.033]	5 to 50 nM
CCc1cccc(CC)c1-n1nc2c(c1-c1cccc3[nH]cc(Cl)c13)CN(Cc1ccc(C(F)(F)F)cc1C(F)(F)F)C2(C)C [Compound 1.034]	5 to 50 nM
CCc1cccc(CC)c1-n1nc2c(c1-c1cccc3[nH]cc(C)c13)CN(Cc1ccc(C(F)(F)F)cc1C(F)(F)F)C2(C)C [Compound 1.035]	5 to 50 nM
CCc1cccc(CC)c1-n1nc2c(c1-c1cccc3[nH]cc(C#N)c13)CN(Cc1ccc(C(F)(F)F)cc1C(F)(F)F)C2(C)C [Compound 1.036]	5 to 50 nM
CCc1cccc(CC)c1-n1nc2c(c1-c1c(F)cc(F)c3[nH]ccc13)CN(Cc1ccc(C(F)(F)F)cc1C(F)(F)F)C2(C)C [Compound 1.037]	< 5 nM
CCc1cccc(CC)c1-n1nc2c(c1-c1cccc3[nH]ccc13)CN(Cc1cc(C(F)(F)F)ccc1C(F)(F)F)C2(C)C [Compound 1.038]	5 to 50 nM
CCc1cccc(CC)c1-n1nc2c(c1-c1ccc(F)c3[nH]ccc13)CN(Cc1ccc(C(F)(F)F)cc1C(F)(F)F)C2(C)C [Compound 1.039]	5 to 50 nM
CCc1cccc(CC)c1-n1nc2c(c1-c1cccc3[nH]ccc13)CN(C(=O)Cn1nc(C(F)(F)F)cc1C)C2(C)C [Compound 1.040]	≥ 500 nM
CCc1cccc(CC)c1-n1nc2c(c1-c1cccc3[nH]ccc13)CN(C(=O)COc1ccccc1)C2(C)C [Compound 1.041]	50 to 500 nM
CCc1cccc(CC)c1-n1nc2c(c1-c1cccc3[nH]ccc13)CN(Cc1cc(Cl)ccc1Cl)C2(C)C [Compound 1.042]	5 to 50 nM
CCc1cccc(CC)c1-n1nc2c(c1-c1c(F)ccc3[nH]ccc13)CN(Cc1ccc(C(F)(F)F)cc1C(F)(F)F)C2(C)C [Compound 1.043]	5 to 50 nM
CCc1cccc(CC)c1-n1nc2c(c1-c1cccc3[nH]ccc13)CN(Cc1ccccc1C(F)(F)F)C2(C)C [Compound 1.044]	5 to 50 nM
CCc1cccc(CC)c1-n1nc2c(c1-c1cccc3[nH]ccc13)CN(Cc1ccc(C(F)(F)F)cc1C(F)(F)F)C2(C)C [Compound 1.045]	5 to 50 nM
CCc1cccc(CC)c1-n1nc2c(c1-c1ccc3[nH]ccc3c1)CN(Cc1cc(Cl)ccc1Cl)C2(C)C [Compound 1.046]	5 to 50 nM
